From ChEMBL document CHEMBL1201862, “PubChem BioAssay data set” (2004)
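All cell lines were grown in 96-well plates and treated with compound for 48 hours. Here, GI50 denotes the concentration required for 50% inhibition of growth.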 The source made the active and inactive calls. Rule as the data show it: active = GI50 up to about 1.1 µM and inactive = higher.

How the values were obtained:
Experiment in all cases: DTP human tumour cell line panel, 48 h
COLO 205 = tested on: COLO 205
MOLT-4 = tested on: MOLT-4
ACHN = tested on: ACHN
RPMI-8226 = tested on: RPMI-8226
HL-60 = tested on: HL-60
OVCAR-5 = tested on: OVCAR-5
KM12 = tested on: KM12
SNB-19 = tested on: SNB-19
OVCAR-8 = tested on: OVCAR-8
A498 = tested on: A498
SK-MEL-2 = tested on: SK-MEL-2
CAKI-1 = tested on: CAKI-1
NCI-H226 = tested on: NCI-H226
OVCAR-4 = tested on: OVCAR-4
SK-MEL-5 = tested on: SK-MEL-5
MCF7 = tested on: MCF7
UACC-257 = tested on: UACC-257
TK-10 = tested on: TK-10
DU-145 = tested on: DU-145
HOP-62 = tested on: HOP-62

SMILES | GI50 (COLO 205) | GI50 (MOLT-4) | GI50 (ACHN) | GI50 (RPMI-8226) | GI50 (HL-60) | GI50 (OVCAR-5) | GI50 (KM12) | GI50 (SNB-19) | GI50 (OVCAR-8) | GI50 (A498) | GI50 (SK-MEL-2) | GI50 (CAKI-1) | GI50 (NCI-H226) | GI50 (OVCAR-4) | GI50 (SK-MEL-5) | GI50 (MCF7) | GI50 (UACC-257) | GI50 (TK-10) | GI50 (DU-145) | GI50 (HOP-62)
NC(=O)c1csc(-c2ccc(CO)o2)n1 | > 100 µM (inactive) | > 100 µM (inactive) | > 100 µM (inactive) | > 100 µM (inactive) | > 100 µM (inactive) | > 100 µM (inactive) | > 100 µM (inactive) | > 100 µM (inactive) | > 100 µM (inactive) | > 100 µM (inactive) | > 100 µM (inactive) | > 100 µM (inactive) | > 100 µM (inactive) | > 100 µM (inactive) | > 100 µM (inactive) | > 100 µM (inactive) | > 100 µM (inactive) | > 100 µM (inactive) | > 100 µM (inactive) | –
O=C(C=P(c1ccccc1)(c1ccccc1)c1ccccc1)c1ccccc1-c1ccccc1C(=O)C=P(c1ccccc1)(c1ccccc1)c1ccccc1 | 0.0103 µM (active) | 0.0124 µM (active) | 0.0272 µM (active) | < 0.01 µM (active) | < 0.01 µM (active) | 0.0462 µM (active) | < 0.01 µM (active) | 0.0288 µM (active) | < 0.01 µM (active) | 0.0264 µM (active) | 0.0212 µM (active) | 0.163 µM (active) | 0.0221 µM (active) | 0.029 µM (active) | 0.0111 µM (active) | < 0.01 µM (active) | < 0.01 µM (active) | < 0.01 µM (active) | 0.0184 µM (active) | 0.0311 µM (active)
Cc1ccc(N2CCN(CCC(=O)O)CC2)cc1 | > 100 µM (inactive) | – | > 100 µM (inactive) | > 100 µM (inactive) | 0.834 µM (active) | > 100 µM (inactive) | > 100 µM (inactive) | > 100 µM (inactive) | > 100 µM (inactive) | > 100 µM (inactive) | > 100 µM (inactive) | > 100 µM (inactive) | > 100 µM (inactive) | > 100 µM (inactive) | > 100 µM (inactive) | > 100 µM (inactive) | > 100 µM (inactive) | > 100 µM (inactive) | > 100 µM (inactive) | > 100 µM (inactive)
COc1cc2c(c(OC)c1OC)C(=O)[C@H]1OC(=O)N[C@@H]21 | > 100 µM (inactive) | > 100 µM (inactive) | > 100 µM (inactive) | > 100 µM (inactive) | > 100 µM (inactive) | > 100 µM (inactive) | > 100 µM (inactive) | > 100 µM (inactive) | > 100 µM (inactive) | > 100 µM (inactive) | > 100 µM (inactive) | > 100 µM (inactive) | > 100 µM (inactive) | > 100 µM (inactive) | – | > 100 µM (inactive) | > 100 µM (inactive) | > 100 µM (inactive) | > 100 µM (inactive) | > 100 µM (inactive)
COc1cc(/C=C/C2=NN(c3cccc(S(=O)(=O)O)c3)C3(C2)SCC(=O)N3c2nc3ccccc3s2)cc(OC)c1OC (stereo unspecified) | > 100 µM (inactive) | 32.9 µM (inactive) | 64.3 µM (inactive) | 21.3 µM (inactive) | 23.8 µM (inactive) | > 100 µM (inactive) | 38.5 µM (inactive) | 31.9 µM (inactive) | 44.1 µM (inactive) | 39.9 µM (inactive) | 42.1 µM (inactive) | 55.2 µM (inactive) | 44.8 µM (inactive) | 78.7 µM (inactive) | 74.1 µM (inactive) | 36.9 µM (inactive) | 95.7 µM (inactive) | 29.9 µM (inactive) | 29.4 µM (inactive) | –
